Reference: US20240285672A1, “BETA-GLUCAN FOR PREVENTING AND/OR TREATING FIBROSIS AND RELATED DISEASES” (GN Corporation Co Ltd, priority 2021, published 2024)

Tests used:
Type in all cases: in vivo, C57BL/6J mice
[1] = Plasma ALT in STAM mice (F18S study); details: at 9 weeks of age
Method: At study termination, non-fasting blood was collected through direct cardiac puncture using pre-cooled syringes. The collected blood was transferred in pre-cooled polypropylene tubes with anticoagulant (Novo-Heparin) and stored on ice until centrifugation. The blood samples were centrifuged at 1,000×g for 15 minutes at 4° C. The supernatant was collected and stored at −80° C. for biochemistry and evaluation.
Plasma ALT levels were measured by FUJI DRI-CHEM 7000 (Fujifilm Corporation).

[2] = tested on: STAM mouse model of non-alcoholic steatohepatitis; experiment: Sirius red staining of liver sections, fibrosis area (F18S study); details: STAM mice liver, x200
Method: To visualize collagen deposition, Bouin's fixed liver sections were stained using picro-Sirius red solution (Waldeck, Germany). Briefly, sections were deparaffinized and hydrophilized with xylene, 100-70% alcohol series and RO water, and then treated with 0.03% picro-Sirius red solution (Cat No.: 1A-280) for 60 minutes. After washing with 0.5% acetic acid solution and RO water, stained sections were dehydrated and cleared with 70-100% alcohol series and xylene, then sealed with Entellan® new (Merck, Germany) and used for observation.
For quantitative analysis of the fibrosis area and inflammation area, bright field images of Sirius red-stained and F4/80-immunostained sections were captured around the central vein using a digital camera (DFC295; Leica, Germany) at 200-fold magnification, and the positive areas in 5 fields/section were measured using ImageJ software (National Institute of Health, USA).

[3] = tested on: STAM mouse model of non-alcoholic steatohepatitis; experiment: HE staining, NAFLD Activity Score (F18S study); details: STAM mice liver
Method: For HE staining, sections were cut from paraffin blocks of liver tissue prefixed in Bouin's solution and stained with Lillie-Mayer's Hematoxylin (Muto Pure Chemicals Co., Ltd., Japan) and eosin solution (Wako Pure Chemical Industries). The NAFLD Activity Score (NAS) was calculated according to the criteria of Kleiner (Kleiner D E. Et al., Hepatology, 2005; 41:1313), as shown in Table 2. For NAS scoring, bright field images of HE-stained sections were captured using a digital camera (DFC295; Leica, Germany) at 50- and 200-fold magnifications. Steatosis score in 1 section/mouse (representative 1 field at 50-fold magnification), inflammation score in 1 section/mouse (representative 1 field around the central vein at 200-fold magnification) and ballooning score in 1 section/mouse (representative 1 field around the central vein at 200-fold magnification) were estimated.

[4] = tested on: gut microbiota; experiment: Gut microbiome analysis of fecal samples, 16S rRNA sequencing (STAM mice)
Excerpt: Frequency: Fecal samples were collected at the 6 weeks of age (before administration) and 9 weeks of age (before sacrifice).
Procedure: At 6 weeks of age, fecal samples were collected from each mouse by clean catch method. Handle animals with clean gloves sterilized with 70% ethanol. A sterile petri dish was placed on the bench. Gently massage the abdomen, position the bottom of mouse over a fresh petri dish, and collect 1-2 fecal pellets. At sacrifice, fecal samples were aseptically collected from cecum. The tubes with feces were placed on ice immediately. These tubes were snap frozen in liquid nitrogen and stored at −80° C. for shipping.
In this analysis, the 16S rRNA sequence data acquired by the next-generation sequencer from the fecal […] was used to perform community analysis using the QIIME2 program for microbial community analysis. The raw read data in FASTQ format output from the next-generation sequencer was trimmed to remove adapter sequences and low QV regions that may be included in the data. Cutadapt was used to remove adapter sequences from DNA sequencing reads. Trimmomatic was used as read trimming tool for Illumina NGS data. The adapter sequence was trimmed using the adapter trimming program “cutadapt” if the Trimming of the region at the end of the read sequence overlapped the corresponding sequence by at least one base (mismatch tolerance: 20%). […]

Structure (SMILES): CCCc1nc2c(C)cc(-c3nc4ccccc4n3C)cc2n1Cc1ccc(-c2ccccc2C(=O)O)cc1 [Telmisartan]
- Plasma ALT levels (Mean) [1]: 36 U/L
- Sirius red average positive stained area [2]: 0.59
- NAS average score ([3]; HE staining): 2.625
- NAS compared with the other groups ([3]; HE staining): significantly lesser score
- Ballooning and steatosis score ([3]; compared with the vehicle): decreased most
- decrease in firmicutes and increase in Bacteroides ([4]; post-intervention, compared to all other groups): highest
- Proteobacteria ([4]; pre vs post-intervention): increased
